In brackets after ≈: the same amount, converted by molar mass. Read-outs that look alike come from different tables or passages of the source.
Assays:
uveal melanoma (UM) = conditions: mouse xenograft models of uveal melanoma; cited from earlier work
[1] = tested on: pre-clinical models of CLL; conditions: in vitro and in vivo; cited from earlier work
[2] = Solubility estimates by solvent aliquot addition, visual observation; type: physicochemical
Protocol: Aliquots of various solvents were added to measured amounts of Compound I or forms of Compound I as described herein with agitation (typically sonication) at ambient temperature until complete dissolution was achieved, as judged by visual observation. Solubilities were calculated based on the total solvent used to give a solution; actual solubilities may be greater because of the volume of solvent portions utilized or a slow rate of dissolution. […] If dissolution occurred at the first aliquot the value was reported as “>”.

[3] = tested on: Eμ-TCL1 leukemic splenocytes; assay: Survival of mice engrafted with Eμ-TCL1 leukemic splenocytes, comparison with Ibrutinib; type: in vivo, C57BL/6 mice; conditions: 20 mg/kg, qd; for median overall survival (OS): oral gavage at leukemia onset, vehicle 21 days (FIG. 24H)
Protocol: FIG. 24H is a Kaplan-Meier curve showing overall survival for C57BL/6 mice engrafted with Eμ-TCL1 leukemic splenocytes treated with Ibrutinib or Compound I Free Acid Amorphous (20 mg/kg, qd, oral gavage) at leukemia onset, where the median OS is: 41 days (Compound I Free Acid Amorphous, n=7), 32 days (Ibrutinib, n=8) and 21 days (vehicle, n=7). […] Survival comparisons for FIG. 24H were made with the log-rank test, and p-values were adjusted for multiple comparisons.
FIG. 24H is a Kaplan-Meier curve showing overall survival (OS) for C57BL/6 mice engrafted with Eμ-TCL1 leukemic splenocytes treated with Ibrutinib or Compound I Free Acid Amorphous (Cmpd. I FAA) (20 mg/kg, qd, oral gavage) at leukemia onset. Survival comparisons for FIG. 24H were made with the log-rank test, and p-values were adjusted for multiple comparisons.
Ibrutinib is currently the standard of care (first-in-line) treatment.

[4] = tested on: Eμ-TCL1 with advanced leukemia; assay: Pharmacodynamic evaluation of antitumor effects in Eμ-TCL1 with advanced leukemia; type: in vivo, Mice; conditions: 20 mg/kg, qd, oral gavage, 8 days
Protocol: FIG. 24 panels A-C illustrate data related to the pharmacodynamic evaluation of antitumor effects of Compound I Free Acid Amorphous in Eμ-TCL1 with advanced leukemia. Mice were stratified according to leukemic peripheral blood lymphocytes (PBLs) and spleen palpation score to receive either vehicle or Compound I Free Acid Amorphous (20 mg/kg, qd, oral gavage) for 8 days. […] FIG. 24C is a representative immunoblot analysis of relative protein levels of cMYC, P21, BTK, IKZF1, IKZF3 and TCL1A protein at the end of the 8 day study. […] Mice were stratified according to leukemic peripheral blood lymphocytes (PBLs) and spleen palpation score to receive either vehicle or Compound I Free Acid Amorphous (20 mg/kg, qd, oral gavage) for 8 days. […] FIG. 24C is a representative immunoblot analysis of relative protein levels of cMYC, P21, BTK, IKZF1, IKZF3 and TCL1A protein at the end of the 8 day study.

[5] = tested on: adaptive transfer model of Eμ-TCL1; assay: Adaptive transfer model of Eμ-TCL1, treatment at leukemia onset; type: in vivo, wild type mice; conditions: 20 mg/kg, qd
Protocol: (§1) FIG. 24 panels D-G: using an adaptive transfer model of Eμ-TCL1, recipient wild type mice were randomized to receive vehicle (n=12) or Compound I Free Acid Amorphous (20 mg/kg, qd, oral gavage, n=10) at leukemia onset and disease progression was measured by flow cytometry as % CD19/CD5/CD45 positive PBL. Treatment was ended at 150 days. FIG. 24D is a Kaplan-Meier curve showing overall survival (OS) (p<0.0001), with the median OS for Compound I Free Acid Amorphous and the vehicle being 93 days and 34 days, respectively. Survival comparisons for FIG. 24D were made with the log-rank test, and p-values were adjusted for multiple comparisons. Compound I Free Acid Amorphous decreased the percentage of circulating leukemic PBL (FIG. 24E), and reduced spleen mass (FIG. 24F).
as §1, with “Using” for “FIG. 24 panels D-G: using”

[6] = Dynamic vapor sorption (DVS); type: physicochemical; conditions: from about 5% to about 95% RH
Protocol: Dynamic Vapor […] DVS data were collected on a VTI SGA-100 Vapor Sorption Analyzer. NaCl and PVP were used as calibration standards. Samples were not dried prior to analysis. Adsorption and desorption data were collected over a range from 5 to 95% RH at 10% RH increments under a nitrogen purge. The equilibrium criterion used for analysis was less than 0.0100% weight change in 5 minutes with a maximum equilibration time of 3 hours. Data were not corrected for the initial moisture content of the samples.

[7] = methanol (MeOH), ambient temperature

## Cc1noc(C)c1-c1cnc2c(-c3ccc(C(=O)O)cc3)cn([C@@H](C)c3ccccn3)c2c1 [Compound I, 4-(6-(3,5-dimethylisoxazol-4-yl)-1-[(1S)-1-(2-pyridyl)ethyl]pyrrolo[3,2-b]pyridin-3-yl) benzoic acid]
Uveal melanoma (UM)
  tumor growth: significantly inhibited tumor growth
[1]
  efficacy relative to B-cell receptor (BCR) signaling agents: emulatesor exceeds the efficacy of B-cell receptor (BCR) signaling agents
[2]; acetone, organic solvent or mixture, thermodynamic from solid, Acetone, read-out: Solubility
  solubility: 3000 µg/mL (≈ 6.84 mM)
[2]; acetonitrile, organic solvent or mixture, thermodynamic from solid, Acetonitrile, read-out: Solubility
  solubility: < 1000 µg/mL
[2]; dichloromethane, organic solvent or mixture, thermodynamic from solid, Dichloromethane, read-out: Solubility
  solubility: < 1000 µg/mL
[2]; dimethyl sulfoxide, organic solvent or mixture, thermodynamic from solid, Dimethyl sulfoxide, read-out: Solubility
  solubility: > 93000 µg/mL
[2]; ethanol, organic solvent or mixture, thermodynamic from solid, Ethanol, read-out: Solubility
  solubility: < 1000 µg/mL
[2]; ethyl acetate, organic solvent or mixture, thermodynamic from solid, Ethyl acetate, read-out: Solubility
  solubility: < 1000 µg/mL
[2]; isopropanol, organic solvent or mixture, thermodynamic from solid, Isopropanol, read-out: Solubility
  solubility: < 1000 µg/mL
[2]; methanol, organic solvent or mixture, thermodynamic from solid, Methanol, read-out: Solubility
  solubility: 1000 µg/mL (≈ 2.28 mM)
[2]; tetrahydrofuran, organic solvent or mixture, thermodynamic from solid, Tetrahydrofuran, read-out: Solubility
  solubility: 19000 µg/mL (≈ 43.3 mM)
[2]; water, thermodynamic from solid, Water, read-out: Solubility
  solubility: < 1000 µg/mL

## Cc1noc(C)c1-c1cnc2c(-c3ccc(C(=O)O)cc3)cn([C@@H](C)c3ccccn3)c2c1 [Compound I Free Acid Amorphous, 4-(6-(3,5-dimethylisoxazol-4-yl)-1-[(1S)-1-(2-pyridyl)ethyl]pyrrolo[3,2-b]pyridin-3-yl)benzoic acid]
[3]
  median overall survival (OS): 41 days
[3]; oral gavage, log-rank test
  survival compared with vehicle (p=0.024) and Ibrutinib (p=0.049): significantly increased survival
[4]; vs vehicle (FIG. 24A)
  leukemic cells in systemic circulation: reduced
[4]; vs vehicle (FIG. 24B)
  leukemic cells locally in spleen: reduced
[5]; oral gavage (FIG. 24F)
  spleen mass: reduced
[5]; oral gavage (FIG. 24G)
  HE staining of spleen, lung and blood: lymphocytes: depleted of lymphocytes
  Ki67 staining of spleen, lung and blood: mostly absent
[5]; oral gavage at leukemia onset, vehicle 34 days, p<0.0001 (FIG. 24D)
  median overall survival (OS): 93 days
[5]; oral gavage, % CD19/CD5/CD45 positive PBL by flow cytometry (FIG. 24E)
  percentage of circulating leukemic PBL: decreased

## Cc1noc(C)c1-c1cnc2c(-c3ccc(C(=O)O)cc3)cn([C@@H](C)c3ccccn3)c2c1 [Compound I Form D, 4-(6-(3,5-dimethylisoxazol-4-yl)-1-[(1S)-1-(2-pyridyl)ethyl]pyrrolo[3,2-b]pyridin-3-yl)benzoic acid]
[2]; acetone, ambient temperature
  solubility: 4000 µg/mL (≈ 9.12 mM)
[2]; acetonitrile (ACN), ambient temperature
  solubility: <3000 µg/mL
[2]; chloroform, organic solvent or mixture, thermodynamic from solid, chloroform, ambient temperature, read-out: Solubility
  solubility: > 59000 µg/mL
[2]; dichloromethane (DCM), ambient temperature
  solubility: 24000 µg/mL (≈ 54.7 mM)
[2]; diethyl ether, organic solvent or mixture, thermodynamic from solid, diethyl ether, ambient temperature, read-out: Solubility
  solubility: < 2000 µg/mL
[2]; dioxane, organic solvent or mixture, thermodynamic from solid, dioxane, ambient temperature, read-out: Solubility
  solubility: < 2000 µg/mL
[2]; ethanol, organic solvent or mixture, thermodynamic from solid, ethanol (EtOH), ambient temperature, read-out: Solubility
  solubility: 9000 µg/mL (≈ 20.5 mM)
[2]; ethyl acetate, organic solvent or mixture, thermodynamic from solid, ethyl acetate (EtOAc), ambient temperature, read-out: Solubility
  solubility: < 2000 µg/mL
[2]; isopropyl alcohol, organic solvent or mixture, thermodynamic from solid, isopropyl alcohol (IPA), ambient temperature, read-out: Solubility
  solubility: 4000 µg/mL (≈ 9.12 mM)
[2]; [7]
  solubility: >72000 µg/mL
[2]; tetrahydrofuran, organic solvent or mixture, thermodynamic from solid, tetrahydrofuran (THF), ambient temperature, read-out: Solubility
  solubility: 4000 µg/mL (≈ 9.12 mM)
[2]; toluene, ambient temperature
  solubility: <2000 µg/mL
[2]; water, thermodynamic from solid, water, ambient temperature, read-out: Solubility
  solubility: 23000 µg/mL (≈ 52.5 mM)

## Cc1noc(C)c1-c1cnc2c(-c3ccc(C(=O)O)cc3)cn([C@@H](C)c3ccccn3)c2c1 [Compound I Form A, 4-(6-(3,5-dimethylisoxazol-4-yl)-1-[(1S)-1-(2-pyridyl)ethyl]pyrrolo[3,2-b]pyridin-3-yl)benzoic acid]
[6]
  DVS weight gain: about 0.8%
[2]; acetone, ambient temperature
  solubility: 36000 µg/mL (≈ 82.1 mM)
[2]; acetonitrile, organic solvent or mixture, thermodynamic from solid, acetonitrile (ACN), ambient temperature, read-out: Solubility
  solubility: 6000 µg/mL (≈ 13.7 mM)
[2]; dichloromethane, organic solvent or mixture, thermodynamic from solid, dichloromethane (DCM), ambient temperature, read-out: Solubility
  solubility: 12000 µg/mL (≈ 27.4 mM)
[2]; [7]
  solubility: 6000 µg/mL (≈ 13.7 mM)
[2]; toluene, organic solvent or mixture, thermodynamic from solid, toluene, ambient temperature, read-out: Solubility
  solubility: < 4000 µg/mL

## C=CC(=O)N1CCC[C@@H](n2nc(-c3ccc(Oc4ccccc4)cc3)c3c(N)ncnc32)C1 [Ibrutinib, reference compound]
[3]
  median overall survival (OS): 32 days

From patent US10717735B2, “Solid forms of a compound for modulating kinases” (Plexxikon Inc., priority 2017, dated 2020)
